In patent US20060142247A1, “Tricyclic heterocycles” (priority 2004, published 2006):

Tested on: HCT 116 cells
Test: Viability assay HCT 116 cells (CellTiter-Glo)
Assay type: cell-based
Conditions: Homo sapiens, HCT-116, 120 h, HCT 116 human colon carcinoma cells, 5 days incubation, CellTiter-Glo luminescence
Description: Viability Assay—HCT 116 Cells
A viability assay was performed using the CellTiter-Glo® Luminescent Cell Viability Assay (see Promega Corporation's Technical Bulletin No. 288, pp. 1-11 [revised 2/04] which is hereby incorporated by reference in its entirety). This assay is a homogeneous method of determining the number of viable cells in culture based on quantitation of the ATP present, an indicator of metabolically active cells. The assay is designed for use with multiwell formats, making it ideal for automated high-throughput screening (HTS), cell proliferation and cytotoxicity assays. The homogeneous assay procedure involves adding a single reagent (containing luciferase, luciferan substrate, and buffer) directly to cells cultured in serum-supplemented medium. Cell washing, removal of medium and multiple pipetting steps are not required. The system detects as few as 15 cells/well in a 384-well format in 10 minutes after adding reagent and mixing.
The homogeneous “add-mix-measure” format results in cell lysis and generation of a luminescent signal proportional to the amount of ATP present. The amount of ATP is directly proportional to the number of cells present in culture. The above-referenced assay generates a “glow-type” luminescent signal, produced by the luciferase reaction, which has a half-life generally greater than five hours, depending on cell type and medium used. The extended half-life eliminates the need to use reagent injectors and provides flexibility for continuous or batch mode processing of multiple plates. The unique homogeneous format avoids errors that may be introduced by other ATP measurement methods that require multiple steps.
HCT 116 cells (human colon carcinoma, ATCC-No. CCl-247) were cultivated in RPMI 1640 medium with GlutaMAX™ I (cell culture media that contains L-Alanyl-L-Glutamine [a stabilized a form/source of L-Glutamine] from Invitrogen, Cat-No. 61870-010), 2.5% Fetal Calf Serum (FCS, Sigma Cat-No. F4135 (FBS)); 100 Units/ml penicillin/100 μg/ml streptomycin (=Pen/Strep from Invitrogen Cat. No. 15140). For the assay the cells were seeded in 384 well plates, 1000 cells per well, in the same medium. The next day the test compounds were added in various concentrations ranging from 30 μM to 0.0015 μM (10 concentrations, 1:3 diluted). After 5 days the viability assay was done according to the instructions of the manufacturer. In brief: the cell-plate was equilibrated to room temperature for approximately 30 minutes and than the reagent (containing luciferase, luciferan substrate, and buffer) was added. The contents were carefully mixed for 15 minutes to induce cell lysis. After 45 minutes the luminescent signal was measured in Victor 2, (scanning multiwell spectrophotometer, Wallac).
Medium: RPMI 1640 with cell culture media containing L-Alanyl-L-Glutamine [GlutaMAX™ I (Invitrogen, Cat-Nr. 61870)], 5% FCS (Sigma Cat.-No. F4135), Pen/Strep (Invitrogen, Cat No. 15140). • HCT116 (ATCC-No. CCl-247): 1000 cells in 60 μl per well of 384 well plate (Greiner 781098, μClear-plate white) • After seeding incubate plates 24 h at 37° C., 5% CO2 2nd. Day: Induction (Treatment with Compounds, 10 Concentrations):
In order to achieve a final concentration of 30 μM as highest concentration […] of 10 mM compound stock solution were added directly to 163 μl media. Then step e) of the dilution procedure described below, was followed.

IC50	Compound
0.1 to 1 µM	CC1(C)C(=O)N(CC(=O)NOCc2ccccc2)c2cc3[nH]c(-c4n[nH]c5ccccc45)nc3cc21 [Example 50, N-Benzyloxy-2-[2-(1H-indazol-3-yl)-7,7-dimethyl-6-oxo-6,7-dihydro-3H-imidazo[4,5-f]indol-5-yl]-acetamide]
0.1 to 1 µM	CCN1C(=O)C(C)(C)c2cc3nc(-c4n[nH]c5ccc(C(=O)NCc6cccnc6)cc45)[nH]c3cc21 [Example 81, 3-(5-Ethyl-7,7-dimethyl-6-oxo-3,5,6,7-tetrahydro-imidazo[4,5-f]indol-2-yl)-1H-indazole-5-carboxylic acid (pyridin-3-ylmethyl)-amide; compound with acetic acid]
1 to 10 µM	CCN1C(=O)C(C)(C)c2cc3nc(-c4n[nH]c5ccc(C(N)=O)cc45)[nH]c3cc21 [Example 100, 3-(5-Ethyl-7,7-dimethyl-6-oxo-3,5,6,7-tetrahydro-imidazo[4,5-f]indol-2-yl)-1H-indazole-5-carboxylic acid amide]
0.1 to 1 µM	CCN1C(=O)C(C)(C)c2cc3nc(-c4n[nH]c5ccc(C(=O)OC)cc45)[nH]c3cc21 [Example 101, 3-(5-Ethyl-7,7-dimethyl-6-oxo-3,5,6,7-tetrahydro-imidazo[4,5-f]indol-2-yl)-1H-indazole-5-carboxylic acid methyl ester]
0.1 to 1 µM	CC(C)N1C(=O)C(C)(C)c2cc3[nH]c(-c4n[nH]c5ccc(NS(=O)(=O)c6ccc(F)cc6)cc45)nc3cc21 [Example 142, 4-Fluoro-N-[3-(5-isopropyl-7,7-dimethyl-6-oxo-1,5,6,7-tetrahydro-imidazo[4,5-f]indol-2-yl)-1H-indazol-5-yl]-benzenesulfonamide]
0.1 to 1 µM	CCN1C(=O)C(C)(C)c2cc3nc(-c4n[nH]c5ccc(NS(=O)(=O)c6cc(F)ccc6F)cc45)[nH]c3cc21 [Example 141, N-[3-(5-Ethyl-7,7-dimethyl-6-oxo-3,5,6,7-tetrahydro-imidazo[4,5-f]indol-2-yl)-1H-indazol-5-yl]-2,5-difluoro-benzenesulfonamide]
0.1 to 1 µM	CC1(C)C(=O)N(CC(=O)NCc2cccnc2)c2cc3[nH]c(-c4n[nH]c5ccccc45)nc3cc21 [Example 41, 2-[2-(1H-Indazol-3-yl)-7,7-dimethyl-6-oxo-6,7-dihydro-3H-imidazo[4,5-f]indol-5-yl]-N-pyridin-3-ylmethyl-acetamide]
0.1 to 1 µM	CC1(C)C(=O)N(CC(=O)NCc2ccc(F)cc2)c2cc3[nH]c(-c4n[nH]c5ccccc45)nc3cc21 [Example 46, N-(4-Fluoro-benzyl)-2-[2-(1H-indazol-3-yl)-7,7-dimethyl-6-oxo-6,7-dihydro-3H-imidazo[4,5-f]indol-5-yl]-acetamide]
1 to 10 µM	CCN1C(=O)C(C)(C)c2cc3nc(-c4n[nH]c5ccc(NC(C)=O)cc45)[nH]c3cc21 [Example 145, N-[3-(5-Ethyl-7,7-dimethyl-6-oxo-3,5,6,7-tetrahydro-imidazo[4,5-f]indol-2-yl)-1H-indazol-5-yl]-acetamide]
0.1 to 1 µM	CCN1C(=O)C(C)(C)c2cc3nc(-c4n[nH]c5ccc(C(=O)N6CCSC6)cc45)[nH]c3cc21 [Example 96, 5-Ethyl-7,7-dimethyl-2-[5-(thiazolidine-3-carbonyl)-1H-indazol-3-yl]-5,7-dihydro-3H-imidazo[4,5-f]indol-6-one]
0.1 to 1 µM	CONC(=O)CN1C(=O)C(C)(C)c2cc3nc(-c4n[nH]c5ccccc45)[nH]c3cc21 [Example 51, 2-[2-(1H-Indazol-3-yl)-7,7-dimethyl-6-oxo-6,7-dihydro-3H-imidazo[4,5-f]indol-5-yl]-N-methoxy-acetamide]
0.1 to 1 µM	CCN1C(=O)C(C)(C)c2cc3nc(-c4n[nH]c5ccc(C(=O)NCc6ccccc6)cc45)[nH]c3cc21 [Example 79, 3-(5-Ethyl-7,7-dimethyl-6-oxo-3,5,6,7-tetrahydro-imidazo[4,5-f]indol-2-yl)-1H-indazole-5-carboxylic acid benzylamide]
0.1 to 1 µM	CC1(C)C(=O)N(CCNC(=O)C2CC2)c2cc3[nH]c(-c4n[nH]c5ccccc45)nc3cc21 [Example 56, Cyclopropanecarboxylic acid {2-[2-(1H-indazol-3-yl)-7,7-dimethyl-6-oxo-6,7-dihydro-3H-imidazo[4,5-f]indol-5-yl]-ethyl}-amide]
0.1 to 1 µM	CC1(C)C(=O)N(CCS(C)(=O)=O)c2cc3[nH]c(-c4n[nH]c5ccccc45)nc3cc21 [Example 65, 2-(1H-Indazol-3-yl)-5-(2-methanesulfonyl-ethyl)-7,7-dimethyl-5,7-dihydro-3H-imidazo[4,5-f]indol-6-one]
0.1 to 1 µM	CCN1C(=O)C(C)(C)c2cc3[nH]c(-c4n[nH]c5ccc(NS(=O)(=O)c6ccccc6)cc45)nc3cc21 [Example 132, N-[3-(5-Ethyl-7,7-dimethyl-6-oxo-1,5,6,7-tetrahydro-imidazo[4,5-f]indol-2-yl)-1H-indazol-5-yl]-benzenesulfonamide]
0.1 to 1 µM	CCN1C(=O)C(C)(C)c2cc3nc(-c4n[nH]c5ccc(F)cc45)[nH]c3cc21 [Example 66, 5-Ethyl-2-(5-fluoro-1H-indazol-3-yl)-7,7-dimethyl-5,7-dihydro-3H-imidazo[4,5-f]indol-6-one]
0.1 to 1 µM	CC(C)N1C(=O)C(C)(C)c2cc3[nH]c(-c4n[nH]c5ccc(NS(=O)(=O)c6ccccc6S(C)(=O)=O)cc45)nc3cc21 [Example 143, N-[3-(5-Isopropyl-7,7-dimethyl-6-oxo-1,5,6,7-tetrahydro-imidazo[4,5-f]indol-2-yl)-1H-indazol-5-yl]-2-methanesulfonyl-benzenesulfonamide]
0.1 to 1 µM	CC1(C)C(=O)N(CCNC(=O)c2cccnc2)c2cc3[nH]c(-c4n[nH]c5ccccc45)nc3cc21 [Example 55, N-{2-[2-(1H-Indazol-3-yl)-7,7-dimethyl-6-oxo-6,7-dihydro-3H-imidazo[4,5-f]indol-5-yl]-ethyl}-nicotinamide]
0.1 to 1 µM	CCN1C(=O)C(C)(C)c2cc3[nH]c(-c4n[nH]c5ccc(NC(=O)Cc6ccccc6C)cc45)nc3cc21 [Example 113, N-[3-(5-Ethyl-7,7-dimethyl-6-oxo-1,5,6,7-tetrahydro-imidazo[4,5-f]indol-2-yl)-1H-indazol-5-yl]-2-o-tolyl-acetamide]
0.1 to 1 µM	CCN1C(=O)C(C)(C)c2cc3[nH]c(-c4n[nH]c5ccc(NC(=O)c6ccccn6)cc45)nc3cc21 [Example 116, Pyridine-2-carboxylic acid [3-(5-ethyl-7,7-dimethyl-6-oxo-1,5,6,7-tetrahydro-imidazo[4,5-f]indol-2-yl)-1H-indazol-5-yl]-amide]
0.1 to 1 µM	CCN1C(=O)C(C)(C)c2cc3[nH]c(-c4n[nH]c5ccc(NS(=O)(=O)c6cccc(Cl)c6)cc45)nc3cc21 [Example 138, 3-Chloro-N-[3-(5-ethyl-7,7-dimethyl-6-oxo-1,5,6,7-tetrahydro-imidazo[4,5-f]indol-2-yl)-1H-indazol-5-yl]-benzenesulfonamide]
1 to 10 µM	CCN1C(=O)C(C)(C)c2cc3nc(-c4n[nH]c5ccc(C(=O)NCc6ccncc6)cc45)[nH]c3cc21 [Example 82, 3-(5-Ethyl-7,7-dimethyl-6-oxo-3,5,6,7-tetrahydro-imidazo[4,5-f]indol-2-yl)-1H-indazole-5-carboxylic acid (pyridin-4-ylmethyl)-amide; compound with acetic acid]
0.1 to 1 µM	CCN1C(=O)C(C)(C)c2cc3nc(-c4n[nH]c5ccc(C(=O)NCc6cccc(Cl)c6)cc45)[nH]c3cc21 [Example 88, 3-(5-Ethyl-7,7-dimethyl-6-oxo-3,5,6,7-tetrahydro-imidazo[4,5-f]indol-2-yl)-1H-indazole-5-carboxylic acid 3-chloro-benzylamide]
0.1 to 1 µM	CCN1C(=O)C(C)(C)c2cc3nc(-c4n[nH]c5ccc(C(=O)NCc6cccc(OC(F)(F)F)c6)cc45)[nH]c3cc21 [Example 86, 3-(5-Ethyl-7,7-dimethyl-6-oxo-3,5,6,7-tetrahydro-imidazo[4,5-f]indol-2-yl)-1H-indazole-5-carboxylic acid 3-trifluoromethoxy-benzylamide]
